Test: mn = molality of the nth substance listed, in mol/kg
Details: 99.6 kPa, Liquid; for viscosity: Capillary tube (Ostwald / Ubbelohde) method; for mass density: Vibrating tube method

CNC(C)=O [N-methylacetamide] + [Cl-].[Cl-].[Zn+2]
Details | mass density, 308.15 K [kg/m3] | mass density, 313.15 K [kg/m3] | mass density, 318.15 K [kg/m3] | mass density, 323.15 K [kg/m3] | mass density, 328.15 K [kg/m3] | viscosity, 308.15 K [mPa·s] | viscosity, 313.15 K [mPa·s] | viscosity, 318.15 K [mPa·s] | viscosity, 323.15 K [mPa·s] | viscosity, 328.15 K [mPa·s]
m2 = 0 | 946.01 | 941.81 | 937.59 | 933.36 | 929.17 | 3.57 | 3.152 | 2.8 | 2.496 | 2.245
m2 = 0.01212 | 947.01 | 942.99 | 938.78 | 934.4 | 930.23 | 3.595 | 3.169 | 2.819 | 2.512 | 2.26
m2 = 0.02085 | 948.03 | 943.83 | 939.63 | 935.24 | 931.05 | 3.615 | 3.186 | 2.834 | 2.528 | 2.271
m2 = 0.04092 | 949.55 | 945.27 | 941.06 | 936.82 | 932.75 | 3.653 | 3.223 | 2.868 | 2.558 | 2.296
m2 = 0.04735 | 950.23 | 946.04 | 941.77 | 937.56 | 933.2 | 3.669 | 3.232 | 2.876 | 2.566 | 2.304
m2 = 0.05898 | 951.13 | 946.91 | 942.72 | 938.63 | 934.26 | 3.698 | 3.255 | 2.895 | 2.584 | 2.319
m2 = 0.06108 | 951.43 | 947.18 | 942.96 | 938.78 | 934.52 | 3.703 | 3.262 | 2.9 | 2.586 | 2.322
m2 = 0.07786 | 952.85 | 948.65 | 944.45 | 940.25 | 935.97 | 3.743 | 3.293 | 2.928 | 2.612 | 2.344
m2 = 0.09351 | 954.27 | 949.99 | 945.73 | 941.52 | 937.33 | 3.778 | 3.324 | 2.955 | 2.635 | 2.364
m2 = 0.1025 | 955.14 | 950.92 | 946.63 | 942.41 | 938.12 | 3.797 | 3.347 | 2.972 | 2.652 | 2.378
m2 = 0.1083 | 955.59 | 951.41 | 947.14 | 942.93 | 938.6 | 3.81 | 3.354 | 2.982 | 2.659 | 2.384
m2 = 0.1702 | 961.31 | 957.1 | 952.84 | 948.64 | 944.4 | 3.964 | 3.495 | 3.099 | 2.765 | 2.475
m2 = 0.2236 | 966.13 | 961.88 | 957.61 | 953.37 | 949.14 | 4.112 | 3.611 | 3.202 | 2.854 | 2.553
m2 = 0.372 | 979.32 | 975.11 | 970.87 | 966.57 | 962.36 | 4.544 | 3.97 | 3.516 | 3.132 | 2.795
m2 = 0.6919 | 1007.77 | 1003.5 | 999.23 | 994.92 | 990.69 | 5.686 | 4.929 | 4.32 | 3.82 | 3.381
m2 = 1.299 | 1060.68 | 1056.36 | 1052 | 1047.7 | 1043.43 | 8.811 | 7.487 | 6.416 | 5.603 | 4.9

— the NIST ThermoML archive (doi:10.1021/acs.jced.8b00399)
